“Also recorded” adds a separate entry of the source.
Legend:
[1] = test system: CMT transgenic rat model (PMP22 transgenic rats); test: Bar test in CMT transgenic rats; assay type: in vivo; settings: for time of treatment at which bar test effect becomes statistically significant: force-feeding; for bar test performances: female CMT TG rats vs TG placebo, methimazole 0.35 mg/kg, pilocarpine 0.2 mg/kg as printed in b214
Source text: The inventors have tested compounds and combinations for therapeutic effect in CMT transgenic rat model, a hemizygous PMP22 transgenic rats bearing three additional copies of mouse PMP22 gene show signs of demyelination in peripheral and cranial nerves, (Sereda et al., 1996; Grandis et al., 2004). At the mRNA level, an average 1.6-fold overexpression of PMP22 in CMT rats correlates with the clinical phenotype. A putative threshold level of PMP22 overexpression at which the wild type gene turns into a disease gene represents an obvious “target” to reach by treatment aimed at reducing PMP22 gene expression.
The inventors have tested the compounds and combinations for therapeutic effect in a rat model. The experimental groups are formed with young rats of both genders separately. The rats are assigned to the groups following randomization schedule based on the body weight. In some experiments the randomization is based on the performances of the rats in the bar test. Both genders are represented by separate control littermates groups that are numerically equal or bigger than the treatment groups.
The rats are treated chronically with drugs—force fed or injected by Alzet osmotic subcutaneous pump (DURECT Corporation Cupertino, Calif.), depending on each drug bioavailability during 3 or 6 weeks.
Each three or four weeks the animals are subjected to a behavioural test. Each test is conducted by the same investigator in the same room and at the same time of the day; this homogeneity is maintained throughout entire experiment. All treatments and genotype determination are blinded for the investigator. “Bar test” and “Grip strength” has been mainly used to access the performance throughout study. The schedule of the bar test may change as the animal growth (in order to avoid the bias due to the learning, for example).
The bar test evaluates rats' ability to hold on a fix rod. […] The rat is placed on its four paws on the middle of the rod (diameter: 2.5 cm; length: 50 cm; 30 cm above the table). Trials are performed consecutively; the number (5 or 10) and the duration (30 or 60 sec) of trials in our experiments have been depending on batches of the animals. This variability in the testing has been introduced in order to determine the schedule appropriated to the best detection of the motor deficiency in the CMT rats in the course of the experiments.
Performance indices are recorded on each session: • The number of trials needed to hold for 60 sec or 30 sec on the rod. • The mean time spent on the bar (i.e. the fall latency) in each trial and the average on the session. In the experimental procedures the session ends after the rat has stayed two times for a cut-off time, i.e. 30 or 60 s, on the bar. A performance of the cut-off time (30 s or 60 s) is assigned to trials not completed. • The number of falls.

[2] = test system: CMT transgenic rat model (PMP22 transgenic rats); test: Electrophysiology: sensitive nerve potential amplitude (SNAP) in CMT rats; assay type: in vivo; settings: CMT TG rats treated 20 weeks vs TG placebo
Protocol: When appropriate, the rats are subjected to electrophysiological evaluation: the sensitive nerve conduction velocity as well as latencies and potential amplitude are measured.
NCV measurement and potential acquisition (subcutaneous) were performed with the help of the chain composed of an amplificator (AM System 1700 and/or EMG-UTC), a stimulator (Havard apparatus 223) and a computer equipped with an acquisition card and a software for acquisition (SPATOL) and for the signal treatment (CALVISE).
Animals were anesthetized using ketamine/xalazine and maintained on the thermostated plate at 37° C. throughout the test (anaesthetics were supplemented as needed). Stimulating silver needle electrodes were inserted in the proximal part of the tail. The recording electrode was inserted subcutaneously through about 1 mm of skin in the distal part of the tail (4 and 6 cm from the stimulating electrode). Constant-current square-wave stimuli, […] in duration, were administered at a frequency of 0.3 per second. Responses, amplified 5.000-20.000, were visualized and collected on a computer based data acquisition system. Latencies were measured at each wave onset (defined as the first clearly identifiable deflection from the baseline). Peak to peak amplitudes of the largest deflections were calculated to determine maximum amplitude. For each recording, measurements were performed on the averaged responses to at least ten identical stimuli.
Sensory related conduction velocity (SNCV) was calculated by division of the distance between the stimulating cathodes by the difference between the correspondent latencies obtained from the two sites of stimulation.

| Structure (SMILES) | time of treatment at which bar test effect becomes statistically significant ([1]; CMT TG rats) [weeks] | bar test performances ([1]; daily forced feeding) | bar test performances ([1]; daily forced feeding, listed as Methimazole) | SNAP (sensitive nerve potential amplitude), distal portion of the tail [2] | bar test performance compared with WT placebo group ([1]; CMT TG rats, daily forced feeding) | SNAP (sensitive nerve potential amplitude), distal portion of the tail ([2]; listed as compound B) |
| --- | --- | --- | --- | --- | --- | --- |
| Cn1cc[nH]c1=S [methimazole, 1-methyl-3H-imidazole-2-thione] | 8 | significantly more performing | improve bar test performances | significantly improved | – | – |
| CC[C@@H]1C(=O)OC[C@@H]1Cc1cncn1C [pilocarpine, (3S,4R)-3-ethyl-4-[(3-methylimidazol-4-yl)methyl]oxolan-2-one] | 8 | improve bar test performances; also recorded: significantly more performing | – | failed to reach statistical significance | no more significantly differs from that of the WT placebo group | approaching the nominal 5% threshold for significance |

From US9597297B2, “Combination of pilocarpin and methimazol for treating Charcot-Marietooth disease and related disorders” (PHARNEXT, priority 2008, dated 2017)
